For one compound, IC50 and AUC results are on record in patent US12084430B2, “Tricyclic urea compounds as JAK2 V617F inhibitors” (Incyte Corporation, priority 2022, dated 2024).

The target in data set [1] is T1, catalytic domain (JH1, amino acids 826-1132) of human JAK2 (Homo sapiens, UniProt O60674).
T1 construct: catalytic domain (JH1, amino acids 826-1132) of human JAK2; FLAG (N); biotin (biotinylated); purchased Carna Biosciences 08-445-20N; host or cells: baculovirus expression system
Nature of the data set: JAK2 LanthaScreen JH1 binding assay. The conditions noted are these: read-out: JH1 Bind IC50. How it is done:
Example A. JAK2 LanthaScreen […] Binding Assay
JAK2 JH1 binding assay utilizes catalytic domain (JH1, amino acids 826-1132) of human JAK2 expressed as N-terminal FLAG-tagged, biotinylated protein in a baculovirus expression system (Carna Biosciences, Product #08-445-20N). The assay was conducted in black 384-well polystyrene plates in a final reaction volume of 20 μL. JAK2 JH1 (1.5 nM) was incubated with compounds (100 nL serially diluted in DMSO) in the presence of 50 nM fluorescent JAK2-JH1 tracer and 0.5 nM Streptavidin-Tb cryptate (Cisbio Part #610SATLB) in assay buffer (50 mM Tris, pH=7.5, 10 mM MgCl2, 0.01% Brij-35, 0.1% BSA, 1 mM EGTA, 5% Glycerol and 5 mM DTT). Non-specific binding was accessed in the presence of 2 mM ATP. After incubation for 2 hours at 25° C., LanthaScreen signals were read on a PHERAstar FS plate reader (BMG LABTECH). Data was analyzed with IDBS XLfit and GraphPad Prism 5.0 software using a four parameter dose response curve to determine IC50 for each compound.

Data set [2] has as its target T2, FLT3 (Homo sapiens, UniProt P36888).
T2 sequence (P36888 27-993): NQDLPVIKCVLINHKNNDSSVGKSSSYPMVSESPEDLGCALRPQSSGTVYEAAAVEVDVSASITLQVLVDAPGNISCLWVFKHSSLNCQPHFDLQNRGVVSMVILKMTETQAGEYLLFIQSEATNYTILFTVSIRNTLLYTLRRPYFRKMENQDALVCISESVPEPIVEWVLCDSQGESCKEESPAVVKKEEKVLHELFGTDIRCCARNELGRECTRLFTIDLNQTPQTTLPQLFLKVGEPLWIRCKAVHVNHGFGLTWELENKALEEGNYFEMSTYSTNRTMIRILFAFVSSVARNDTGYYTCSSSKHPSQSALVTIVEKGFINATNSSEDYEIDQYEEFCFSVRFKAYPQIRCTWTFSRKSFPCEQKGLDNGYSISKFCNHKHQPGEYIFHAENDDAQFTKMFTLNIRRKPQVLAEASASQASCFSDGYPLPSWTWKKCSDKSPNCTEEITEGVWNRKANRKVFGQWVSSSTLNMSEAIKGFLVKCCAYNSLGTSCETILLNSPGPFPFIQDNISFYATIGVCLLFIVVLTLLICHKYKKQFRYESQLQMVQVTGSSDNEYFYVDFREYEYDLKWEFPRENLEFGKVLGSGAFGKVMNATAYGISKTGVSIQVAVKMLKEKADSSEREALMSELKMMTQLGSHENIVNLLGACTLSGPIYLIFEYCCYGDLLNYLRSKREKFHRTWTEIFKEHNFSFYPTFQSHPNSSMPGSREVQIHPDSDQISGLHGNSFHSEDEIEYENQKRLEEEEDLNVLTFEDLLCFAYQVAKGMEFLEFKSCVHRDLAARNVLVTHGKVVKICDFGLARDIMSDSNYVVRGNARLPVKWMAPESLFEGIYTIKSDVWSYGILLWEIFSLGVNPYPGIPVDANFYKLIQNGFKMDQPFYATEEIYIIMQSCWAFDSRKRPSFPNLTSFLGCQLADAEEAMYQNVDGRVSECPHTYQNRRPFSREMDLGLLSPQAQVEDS
Description: FLT3 enzymatic assay. To be noted: 1 mM ATP. Format: biochemical. Summed up: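 Kinase reaction at room temperature in HEPES 50 mM pH 7.0 with 10 mM MgCl2, 1 mM DTT: 0.011 nM FLT3, 1 mM ATP, 500 nM biotinylated TK substrate, 0.5% DMSO. After 60 min, HTRF read as 665/620 nm ratio; IC50 from fit of percent control activity versus log concentration.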

The nature of data set [3]: In vivo pharmacokinetics, rat. Further details: species or system Sprague Dawley rats. The conditions noted are these: male, Sprague Dawley, plasma, oral 3.0 mg/kg. How it is done: Example H. In Vivo Pharmacokinetics
Test compounds were administered to male Sprague Dawley rats or male and female Cynomolgus monkeys intravenously or via oral gavage. For intravenous (IV) dosing, test compounds were dosed at 1 mg/kg using a formulation of 10% dimethylacetamide (DMAC), 10% propylene glycol (PG) in acidified saline via IV bolus for rat or 10 min IV infusion for monkey. For oral (PO) dosing, test compounds were dosed at 3.0 mg/kg using 5% DMAC in 0.5% methylcellulose in citrate buffer (pH˜2.5). Blood samples were collected at predose and various time points up to 24 hours postdose. All blood samples were collected using EDTA as the anticoagulant and centrifuged to obtain plasma samples. The plasma concentrations of test compounds were determined by LC-MS/MS methods. The measured plasma concentrations were used to calculate PK parameters by standard noncompartmental methods using Phoenix® WinNonlin software program (version 8.0, Pharsight Corporation) or similar software. In rats and monkeys, cassette dosing of test compounds were conducted to obtain preliminary PK parameters. In vivo pharmacokinetic experiments with male beagle dogs may be performed under the conditions described above.

Like-named read-outs stand apart in the source and are kept apart here. A value given as a limit tells only on which side of the number the result lay.

T1 sequence (O60674 826-1132): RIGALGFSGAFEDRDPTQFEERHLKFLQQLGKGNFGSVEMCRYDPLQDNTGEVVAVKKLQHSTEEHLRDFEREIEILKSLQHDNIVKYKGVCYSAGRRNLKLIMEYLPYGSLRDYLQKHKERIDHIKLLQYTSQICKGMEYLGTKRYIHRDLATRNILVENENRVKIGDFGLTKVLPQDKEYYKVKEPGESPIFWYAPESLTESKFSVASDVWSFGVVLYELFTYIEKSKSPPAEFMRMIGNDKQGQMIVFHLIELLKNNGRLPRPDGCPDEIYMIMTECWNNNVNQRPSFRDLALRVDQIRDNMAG

Regarding `COC(=O)N[C@@H]1CC[C@@H](n2c(=O)n(C)c3cnc4[nH]c(-c5cn(C)nc5OC)c(-c5ccc(OC)c(F)c5)c4c32)C1` [Example 4, Methyl ((1R,3R)-3-(8-(3-fluoro-4-methoxyphenyl)-7-(3-methoxy-1-methyl-1H-pyrazol-4-yl)-3-methyl-2-oxo-3,6-dihydroimidazo[4,5-d]pyrrolo[2,3-b]pyridin-1(2H)-yl)cyclopentyl)carbamate], the figures for the IC50 in data set [1] (Table A), in data set [1] (Table C) and in data set [2] were > 1000 nM, > 1000 nM and > 2500 nM, respectively. Besides, the AUC in data set [3] was > 1.5 µM·h.

The term IC50 denotes the midpoint of a concentration-inhibition curve. By AUC is commonly meant the area under the concentration-time curve, a measure of exposure.
